Data on six molecules can be found in ChEMBL document CHEMBL5113470, “Regioselective pyrrolizidine bis-spirooxindoles as efficient anti-amyloidogenic agents” (2022).

Assay [1] is filed under the species Gallus gallus. The assay can be described thus: Inhibition of Hen egg white lysozyme fibril formation by Thioflavin T spectroscopic assay relative to control. The note with it: dose or concentration not given here. Also noted: concentration or dose not given beside the values.
The nature of assay [2]: Inhibition of HEWL fibril-induced toxicity in human HEK cells assessed as cell viability by MTT assay ( Rvb = 55.2 +/- 7.2%). The format is functional. For orientation: Tetrazolium dyes change colour on reduction, which living cells bring about.
For assay [3], the species on record is Gallus gallus. Nature of the assay: Inhibition of Hen egg white lysozyme fibril formation assessed as shorter fibrils after day 7 by TEM analysis.
The species named for assay [4] is Gallus gallus. Nature of the assay: Inhibition of Hen egg white lysozyme fibril formation assessed as decrease in conformational transition from alpha-helix to beta-sheet after 7 days by Raman spectroscopic assay. The settings on record: time 7.0 day.
The species named for assay [5] is Gallus gallus. Nature of the assay: Inhibition of Hen egg white lysozyme fibril formation by Circular dichroism.

One may read the inhibition as the share of the control response that was lost under treatment.

Active and inactive are the calls of the source. The rule behind the calls is not given here.

Take `CC[C@H]1CN2CC[C@@]3(C(=O)Nc4ccccc43)[C@@H]2C[C@@H]1/C(=C\OC)C(=O)OC`: the inhibition in the assay filed under Gallus gallus [1] came out at 30.4%.

Molecule `O=C(O[C@@H]1Cc2c(O)cc(O)cc2O[C@@H]1c1cc(O)c(O)c(O)c1)c1cc(O)c(O)c(O)c1` came in with an inhibition in the assay listed under Gallus gallus [1] of 24.4%.

For `O=C(c1ccccc1)[C@@H]1C2CCCN2[C@@]2(C(=O)Nc3ccccc32)[C@@]12C(=O)Nc1ccccc12` (some centres undefined), the Activity in assay [2] amounted to 59.6%. The inhibition entry in the assay listed under Gallus gallus [3], in the assay filed under Gallus gallus [4] and in the assay filed under Gallus gallus [5] was “Active” throughout. In the assay filed under Gallus gallus [1], the inhibition was 22.7%.

Take `COc1cccc(C(=O)[C@@H]2C3CCCN3[C@@]3(C(=O)Nc4ccccc43)[C@@]23C(=O)Nc2ccccc23)c1` (some centres undefined): in assay [2], the Activity turned out to be 64.8%. The inhibition result in the assay listed under Gallus gallus [3], in the assay listed under Gallus gallus [4] and in the assay filed under Gallus gallus [5] was “Active” in each case. In addition, the inhibition in the assay listed under Gallus gallus [1] was 20.3%.

Regarding `COc1ccc(C(=O)[C@@H]2C3CCCN3[C@@]3(C(=O)Nc4ccccc43)[C@@]23C(=O)Nc2ccccc23)cc1` (some centres undefined), the Activity in assay [2] was 47.7%. Further, the inhibition entry in the assay listed under Gallus gallus [3], in the assay filed under Gallus gallus [4] and in the assay filed under Gallus gallus [5] was “Active” each time. Besides, the inhibition in the assay listed under Gallus gallus [1] was 45.3%.

In the case of `CC[C@H]1CN2CC[C@]3(C(=O)Nc4ccccc43)[C@@H]2C[C@@H]1/C(=C\OC)C(=O)OC` [RHYNCHOPHYLLINE], the Activity in assay [2] amounted to 77%. This molecule also registered an inhibition in the assay listed under Gallus gallus [1] of 37.6%.
